Data on five compounds can be found in patent US11485733B2, “Azaquinoline derivatives” (BAYER ANIMAL HEALTH GMBH, priority 2017, dated 2022).

Several values for one entry are separate records, joined by “and”; a condition that tells them apart may be missing. Equal entries are not always repeated.

Assay [1] has as its system Litomosoides sigmodontis third-stage larvae. The assay is described as follows: Litomosoides sigmodontis (LTMOSI L3) larval motility. The note with it: 72 h, read-out: EC50 (reduction of motility).
Method: In Vitro Assay 6: Litomosoides sigmodontis (LTMOSI L3)
10 Litomosoides sigmodontis third-stage larvae, which were freshly isolated from the pleural cavity of an infected rodent, were added to wells of a microtitre plate containing a nutrient medium and the test compound in DMSO. Compounds were tested in concentration-response assay in duplicate. Larvae exposed to DMSO and no test compounds were used as negative controls. Larvae were evaluated after 72 h of incubation with the compound. Efficacy was determined as the reduction of motility in comparison to the negative control. Based on the evaluation of a wide concentration range, concentration-response curves as well as EC50-values were calculated.
In another assay the test system is Dirofilaria immitis. Kind of assay: Dirofilaria immitis (DIROIM L4) larval motility. The note with it: 72 h, read-out: EC50 (reduction of motility).
A further assay addresses C. elegans Slo-1a (Caenorhabditis elegans, UniProt Q95V25). The note with it: pE50 (negative decadic logarithm of EC50), CHO cells expressing C. elegans Slo-1a; voltage sensitive dye, 70 mM KCl.
For assay [2], the system named is Dirofilaria immitis microfilariae. The assay is described as follows: Dirofilaria immitis microfilariae (DIROIM L1) motility. The note with it: 72 h, read-out: EC50 (reduction of motility).
For assay [3], the system named is Nippostrongylus brasiliensis. The assay is described as follows: Nippostrongylus brasiliensis (NIPOBR) adult worms, acetylcholine esterase readout. The note with it: read-out: activity (reduction of AChE compared to negative control); for inhibition at 1 µg/mL: at 1 μg/ml (1 ppm). The method in brief: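 Adult worms washed in saline with penicillin/streptomycin/amphotericin B, then incubated in medium with test compound (DMSO) at final 10 μg/ml (10 ppm) or 1 μg/ml (1 ppm). Acetylcholine esterase activity in a medium aliquot served as anthelmintic readout, compared with negative control.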

The next assay has as its system Haemonchus contortus. The assay is described as follows: Haemonchus contortus larval mortality. The note with it: 120 h, read-out: activity (percentage of larval mortality).
A further assay relates to Cooperia curticei. The assay is described as follows: Cooperia curticei larval mortality. The note with it: 120 h, read-out: activity (percentage of larval mortality).
The target of a further assay is D. immitis Slo-1 (Dirofilaria immitis, UniProt I0DFK5). Kind of assay: D. immitis Slo-1, action at a recombinant CHO cell line (membrane potential, FLIPR). It counts as cell-based.
Sequence of D. immitis Slo-1 (I0DFK5 1-1119): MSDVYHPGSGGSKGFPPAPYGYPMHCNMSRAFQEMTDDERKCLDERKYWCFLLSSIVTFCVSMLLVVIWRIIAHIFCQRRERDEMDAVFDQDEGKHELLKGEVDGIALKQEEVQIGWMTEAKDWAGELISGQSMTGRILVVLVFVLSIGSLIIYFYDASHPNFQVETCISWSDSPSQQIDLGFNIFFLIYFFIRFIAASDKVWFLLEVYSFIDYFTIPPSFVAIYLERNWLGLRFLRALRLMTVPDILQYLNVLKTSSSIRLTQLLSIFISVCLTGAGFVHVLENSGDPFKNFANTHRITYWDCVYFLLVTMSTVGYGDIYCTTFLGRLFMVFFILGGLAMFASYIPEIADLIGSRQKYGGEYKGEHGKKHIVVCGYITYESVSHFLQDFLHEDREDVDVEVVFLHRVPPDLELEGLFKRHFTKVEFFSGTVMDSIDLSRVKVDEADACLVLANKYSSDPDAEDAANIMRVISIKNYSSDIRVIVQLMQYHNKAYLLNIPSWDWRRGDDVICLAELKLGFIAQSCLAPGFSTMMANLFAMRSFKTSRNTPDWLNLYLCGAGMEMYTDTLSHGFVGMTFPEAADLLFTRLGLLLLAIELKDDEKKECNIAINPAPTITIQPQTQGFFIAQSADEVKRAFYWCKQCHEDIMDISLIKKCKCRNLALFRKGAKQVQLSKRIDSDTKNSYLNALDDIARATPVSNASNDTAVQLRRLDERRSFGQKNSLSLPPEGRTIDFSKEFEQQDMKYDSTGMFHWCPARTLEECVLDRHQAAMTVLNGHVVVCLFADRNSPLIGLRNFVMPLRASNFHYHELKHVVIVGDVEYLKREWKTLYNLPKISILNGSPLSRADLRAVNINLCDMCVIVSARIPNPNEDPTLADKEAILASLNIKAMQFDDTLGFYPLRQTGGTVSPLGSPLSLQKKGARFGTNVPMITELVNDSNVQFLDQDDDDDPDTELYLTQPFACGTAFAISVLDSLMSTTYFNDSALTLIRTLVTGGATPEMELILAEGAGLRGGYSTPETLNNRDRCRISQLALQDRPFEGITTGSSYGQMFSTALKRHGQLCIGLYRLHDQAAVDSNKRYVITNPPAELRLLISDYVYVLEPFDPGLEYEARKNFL

Sequence of C. elegans Slo-1a (Q95V25 whole entry): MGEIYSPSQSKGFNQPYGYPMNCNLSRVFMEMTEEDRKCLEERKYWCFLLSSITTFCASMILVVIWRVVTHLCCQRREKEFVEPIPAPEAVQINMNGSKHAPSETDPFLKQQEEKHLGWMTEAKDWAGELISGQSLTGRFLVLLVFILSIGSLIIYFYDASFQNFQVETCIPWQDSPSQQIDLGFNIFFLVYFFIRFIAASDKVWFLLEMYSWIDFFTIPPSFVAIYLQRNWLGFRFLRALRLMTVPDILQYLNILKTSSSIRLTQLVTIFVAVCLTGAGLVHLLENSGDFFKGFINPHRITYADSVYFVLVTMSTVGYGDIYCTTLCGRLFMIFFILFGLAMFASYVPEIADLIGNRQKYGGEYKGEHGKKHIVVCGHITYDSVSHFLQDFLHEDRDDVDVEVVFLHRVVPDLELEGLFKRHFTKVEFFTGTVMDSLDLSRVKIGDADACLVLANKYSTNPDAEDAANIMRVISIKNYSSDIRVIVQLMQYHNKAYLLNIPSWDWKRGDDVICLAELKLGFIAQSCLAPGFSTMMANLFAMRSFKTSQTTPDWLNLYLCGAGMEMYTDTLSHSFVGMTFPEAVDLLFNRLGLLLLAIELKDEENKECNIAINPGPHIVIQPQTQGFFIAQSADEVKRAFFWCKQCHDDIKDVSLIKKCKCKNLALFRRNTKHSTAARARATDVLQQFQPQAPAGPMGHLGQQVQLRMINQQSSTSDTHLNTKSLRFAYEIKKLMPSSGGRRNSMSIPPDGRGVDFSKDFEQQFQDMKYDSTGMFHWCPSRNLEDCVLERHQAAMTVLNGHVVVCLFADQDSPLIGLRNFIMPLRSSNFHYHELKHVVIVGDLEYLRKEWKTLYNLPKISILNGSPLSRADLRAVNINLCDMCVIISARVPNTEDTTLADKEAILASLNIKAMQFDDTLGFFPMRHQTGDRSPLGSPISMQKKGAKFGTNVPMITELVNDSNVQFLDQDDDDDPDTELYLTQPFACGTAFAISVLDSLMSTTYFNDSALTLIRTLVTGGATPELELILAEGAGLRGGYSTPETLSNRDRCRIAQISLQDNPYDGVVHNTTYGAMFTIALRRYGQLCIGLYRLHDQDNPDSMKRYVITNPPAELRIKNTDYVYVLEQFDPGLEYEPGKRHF
Method for C. elegans Slo-1a: Generation of a Stable C. elegans CHO Cell Line
A CHO cell line was obtained from ATCC, code ATCC CRL-9096. […] The transfection solution included 300 μL OptiMEM (Life Technologies, Nr.: 31985), 2 μL (=6 μg) of plasmid DNA containing the C. elegans Slo 1a gene and 9 μL FugeneHD (Promega, Nr.: E2311), and was added to the cells prior to incubation for 48 hours at 37° C., 5% CO2. The transfection medium was exchanged for the selection medium which contains additional G418 (2 mg/ml, Invitrogen, Nr.: 10131) and the cells were seeded into 384 well plates (300 cells/well). After a few weeks, the remaining surviving cells were tested with a voltage sensitive dye (Membrane Potential Assay Kit, Molecular Devices Nr.: R8034) for K+ channel expression. Positive cell clones were purified by the limited dilution technique. For this the clone with the highest and most robust signal in the voltage sensitive dye assay was further subcloned (incubated) in 384 well plates (0.7 cells/well) in order to obtain clonal purity. This generated a final stable CHO cell line expressing the C. elegans Slo-1a.
Cells were cultured at 37° C. and 5% CO2 in MEMalpha with Gutamax I (Invitrogen, Nr.: 32571), supplemented with 10% (v/v) heat inactivated fetal bovine serum (Invitrogen, Nr.: 10500), G418 (1 mg/ml, Invitrogen, Nr.: 10131). Cells were detached using Accutase (Sigma, Nr.: A6964).
Membrane Potential Measurements
Laboratory compound testing was performed on 384-well microtiter plates (MTPs, Greiner, Nr.: 781092). 8000 cells/well were plated onto 384-well MTPs and cultured for 20 to 24 hours at 37° C. and 5% CO2. After removal of the cell culture medium, the cells were washed once with tyrode (150 mM NaCl, 0.3 mM KCl, 2 mM CaCl2, 1 mM MgCl2, 0.8 mM NaH2PO4, 5 mM Glucose, 28 mM Hepes, pH 7.4) and then loaded with the voltage sensitive dye of the Membrane Potential Assay Kit diluted in tyrode for 1 h at room temperature.
After starting the measurement of fluorescence using a FLIPR Tetra (Molecular Devices, Exc. 510-545 nm, Emm. 565-625 nm), test compounds were added followed by the addition of KCl tyrode (final assay concentration: 70 mM KCl, 2 mM CaCl2, 1 mM MgCl2, 0.8 mM NaH2PO4, 5 mM Glucose, 28 mM Hepes, pH 7.4, including the voltage sensitive dye). The measurement was completed after 7 minutes.
The data were evaluated by using the ActivityBase XLfit software (IDBS) for curve fitting and calculation of the half-maximal effective concentration (EC50) and are reported as negative decadic logarithm (pE50).
Method for Cooperia curticei: In Vitro Assay 6: Cooperia curticei
Solvent: Dimethyl Sulfoxide
Approximately 40 nematode larvae (Cooperia curticei) are transferred into a test tube containing the compound solution.
After 5 days percentage of larval mortality is recorded. 100% efficacy means all larvae are killed; 0% efficacy means no larvae are killed.
Method for Haemonchus contortus: In Vitro Assay 7: Haemonchus contortus
Solvent: Dimethyl Sulfoxide
Approximately 40 larvae of the red stomach worm (Haemonchus contortus) are transferred into a test tube containing compound solution.
After 5 days the percentage of larval mortality is recorded. 100% efficacy means all larvae are killed, 0% efficacy means no larvae are killed.

Regarding `CN(C)c1c(C(=O)N[C@H]2CCOc3ccccc32)cnc2c(-c3cc(Cl)cc(Cl)c3)nccc12` [Example T1-1, 8-(3,5-Dichlorophenyl)-N-[(4S)-3,4-dihydro-2H-chromen-4-yl]-4-(dimethylamino)-1,7-naphthyridine-3-carboxamide], the concentration giving a half-maximal response (EC50) was < 0.1 µg/mL in assay [1]; < 0.1 µg/mL in the assay on Dirofilaria immitis; 3.16 to 31.6 nM at C. elegans Slo-1a; < 0.1 µg/mL in assay [2]; 31.6 to 316 nM on D. immitis Slo-1. Moreover, in assay [3], the inhibition at 1 µg/mL is > 80%. Further, the mortality at 20 ppm with Haemonchus contortus and in the assay with Cooperia curticei was 100% throughout. For the same compound, the mortality at 4 ppm in the assay on Cooperia curticei came out at 100%.

Consider `O=C(N[C@H]1CCOc2ccccc21)c1cnc2c(-c3cc(F)cc(F)c3F)nccc2c1N1CCOCC1` [Example T1-5, N-[(4S)-3,4-dihydro-2H-1-benzopyran-4-yl]-4-(morpholin-4-yl)-8-(2,3,5-trifluorophenyl)-1,7-naphthyridine-3-carboxamide], for which the EC50 is < 0.1 µg/mL in assay [1]; < 0.1 µg/mL in the assay on Dirofilaria immitis; 3.16 to 31.6 nM at C. elegans Slo-1a; < 0.1 µg/mL in assay [2]; 31.6 to 316 nM on D. immitis Slo-1. Moreover, in assay [3], the inhibition at 1 µg/mL was > 80%. For the same compound, in assay [3] (at 10 μg/ml (10 ppm)), the inhibition at 10 µg/mL is > 80%. Further, the mortality at 20 ppm amounted to 80% in the assay with Haemonchus contortus and 100% in the assay with Cooperia curticei. Also, the mortality at 4 ppm in the assay with Cooperia curticei is 100%.

For the compound `CN(C)c1c(C(=O)N[C@H]2CCOc3ccccc32)cnc2c(-c3cc(Cl)cc(Cl)c3)ccnc12` [Example T3-1, 8-(3,5-Dichlorophenyl)-N-[(4S)-3,4-dihydro-2H-chromen-4-yl]-4-(dimethylamino)-1,5-naphthyridine-3-carboxamide], the EC50 was < 0.1 µg/mL in assay [1]; < 0.1 µg/mL in the assay with Dirofilaria immitis; 3.16 to 31.6 nM and < 3.16 nM on C. elegans Slo-1a; < 0.1 µg/mL in assay [2]; 3.16 to 31.6 nM on D. immitis Slo-1. The inhibition at 1 µg/mL in assay [3] was > 80%. The mortality at 20 ppm in the assay with Haemonchus contortus and in the assay with Cooperia curticei was 100% in each case. The mortality at 4 ppm with Cooperia curticei came out at 100%.

Consider `CN(C)c1c(C(=O)N[C@H]2CCOc3ccccc32)cnc2c(-c3cccc(Cl)c3Cl)ccnc12` [Example T3-3, 8-(2,3-Dichlorophenyl)-N-[(4S)-3,4-dihydro-2H-chromen-4-yl]-4-(dimethylamino)-1,5-naphthyridine-3-carboxamide], for which the concentration for a half-maximal effect (EC50) is < 0.1 µg/mL in assay [1]; < 0.1 µg/mL in the assay on Dirofilaria immitis; < 3.16 nM at C. elegans Slo-1a; < 0.1 µg/mL in assay [2]; 3.16 to 31.6 nM at D. immitis Slo-1. The inhibition at 1 µg/mL in assay [3] was > 80%. In addition, the mortality at 20 ppm in the assay with Haemonchus contortus and in the assay with Cooperia curticei was 100% each time. In the assay on Cooperia curticei, the mortality at 4 ppm is 100%.

As for `COc1c(C(=O)N[C@H]2CCOc3ccccc32)nnc2c(-c3cccc(Cl)c3Cl)cccc12` [Example T5-7, 8-(2,3-Dichlorophenyl)-N-[(4S)-3,4-dihydro-2H-chromen-4-yl]-4-methoxycinnoline-3-carboxamide], the EC50 in assay [1] was < 0.1 µg/mL; with Dirofilaria immitis it was < 0.1 µg/mL; on C. elegans Slo-1a, < 3.16 nM; in assay [2], < 0.1 µg/mL; on D. immitis Slo-1, 31.6 to 316 nM. Besides, the inhibition at 1 µg/mL in assay [3] was > 80%. Further, the mortality at 20 ppm stood at 90% in the assay on Haemonchus contortus and 100% in the assay on Cooperia curticei. The mortality at 4 ppm in the assay on Cooperia curticei came out at 100%.

For orientation: EC50 means the midpoint of the concentration-response curve. For orientation: mortality means the share of the test organisms that died.
